The values that follow are results of earlier work, collected in publication PMC12315921 (Translational Vision Science & Technology, 2025).

Each structure is given as a SMILES string. Where two headings read alike, the source gives them in different places.

Data set [1] relates to PKM2.
Data set [2] relates to PKM2. This is another data set of the same source.

As for `Nc1cccc(S(=O)(=O)N2CCCN(S(=O)(=O)c3ccc4c(c3)OCCO4)CC2)c1` [DASA-58], the “AC50 of PK activation” value in the data set on PKM2 [1] (in the absence of FBP) is on record as “micromolar”; with PKM2 [1] (in the presence of FBP), “low nanomolar”.
Turning to `O=C(COP(=O)(O)O)[C@@H](O)[C@H](O)[C@H](O)COP(=O)(O)O` [FBP, fructose 1,6-biphosphate], in the data set on PKM2 [2], the AC50 result was “nanomolar range” and the Kd result is “nanomolar range”.
